# Assays:
# [1] = tested on: C57BL/6 mouse irradiated with 7.5 Gy gamma radiation; test: Hair regrowth in an irradiated mouse (Example 1); type: in vivo; details: 12 days of treatment, FIG. 1A, untreated control showed no new growth hair
# Excerpt: FIG. 1A. A C57BL/6 mouse irradiated with 7.5 Gy gamma radiation on Sep. 24, 2003 and given 12 days of [Sar, Met(02)^11]-substance P (Homspera™) treatment.
# FIG. 1B. A C57BL/6 mouse irradiated with 7.5 Gy gamma radiation on Sep. 24, 2003 and given no Homspera™ treatment.
# A C57BL/6 mouse was irradiated with 7.5 Gy gamma radiation on Sep. 24, 2003 and given 12 days of [Sar, Met(02)^11]-substance P (Homspera™) treatment. […] As a control, a C57BL/was 6 mouse irradiated with 7.5 Gy gamma radiation on Sep. 24, 2003 and given no Homspera™ treatment. No new growth hair was observed.
# [2] = tested on: C57BL/6 mice given Cobalt 60 gamma radiation; test: Restoration of radiation-induced hair loss in mice, aerosol treatment (Example 2); type: in vivo, mouse; details: mice pre-exposed to 5 Gy or 2.5 Gy, then 10 Gy at day 75; hair loss over approximately 20% of body; one micromolar by aerosol 15 min/day, 9 days of treatment
# Method: C57BL/6 mice were given a Cobalt 60 gamma radiation treatment on Sep. 24, 2002 of either 10 Gy, 7.5 Gy, 5 Gy, or 2.5 Gy. The 10 Gy mice died at an average of 11.3 days after the radiation exposure. All of the other mice in the other radiation exposure groups survived at least until Dec. 18, 2002. At 75 days after the initial radiation exposure, the 5 Gy and 2.5 Gy mice were administered a 10 Gy dose of Cobalt 60 gamma radiation. On the day of the second 10 Gy radiation exposure, it was noted that the 5 Gy and 2.5 Gy mice had hair loss over approximately 20% of their body with the most significant hair loss in their leg areas and around their ears. Half of the 5 Gy and 2.5 Gy (N=10) mice were administered a one micromolar Homspera™ dose by aerosol for 15 min/day beginning the day of the 10 Gy radiation exposure.
# [3] = tested on: C57BL/6 mice, lethal dose of gamma radiation (7.75 Gy); test: Hair retention and immune status after a lethal dose of gamma radiation (Example 3); type: in vivo, mouse; details: for hair retention: photographed at Day +56 and Day +90 after radiation
# Excerpt: FIG. 2A. Group 1 (90 day treatment of Homspera™) mice photographed at day 56 after radiation.
# FIG. 2B. Group 2 (35 day treatment of Homspera™) mice photographed at day 56 after radiation.
# FIG. 2C. Group 1 (90 day treatment of Homspera™) mice photographed at day 90 after radiation.
# FIG. 2D. Group 2 (35 day treatment of Homspera™) mice photographed at day 90 after radiation.
# C57BL/6 mice were divided into three groups. Groups 1 and 2 underwent a lethal dose of gammna radiation (7.75 Gy) on July 11th. Group 1 mice were treated with Homspera™ (50 micromolar for 35 days and then a maintenance dose of 10 micromolar until +90 days), and then they were killed at +90 days post-lethal radiation (October 9th). Their immune system status was normal compared to control mice (Group 3) that had not been treated with radiation and had not been treated with Homspera™. Group 2 mice received Homspera™ treatment for 35 days after radiation, and then the Homspera™ treatment was completely stopped.
# There are two sets of pictures of the Group 1 and Group 2 mice: one set of pictures taken on September 5th at Day +56 after radiation (FIGS. 2A and 2B), and the other on October 9th at Day +90 after radiation (FIGS. 2C and 2D).
substance,measurement,setting,value
"[Sar, Met(02)^11]-substance P [Homspera™]",new hair growth,[1],New growth (black) hair was observed
same,restoration of hair loss,[2],restored their hair loss
same,hair retention,"[3]; Group 1: 7.75 Gy, 90 day treatment",retained their hair
same,immune system status,"[3]; Group 1: 7.75 Gy, 50 micromolar for 35 days, then 10 micromolar until +90 days, at +90 days, compared to untreated non-irradiated control mice (Group 3)",normal
same,hair retention,"[3]; Group 2: 7.75 Gy, 35 day treatment then stopped",retained their hair

# From patent US20060153789A1, “Stimulation of hair regrowth” (priority 2002, published 2006)
